Laboratory results from ChEMBL document CHEMBL5346977, “Discovery of Novel d-(+)-Biotin-Conjugated Resorcinol Dibenzyl Ether-Based PD-L1 Inhibitors for Targeted Cancer Immunotherapy” (J Med Chem, 2023).
pIC50: −log10 of the molar value. Calls of active or inactive are those of the source. The rule behind the calls is not given here.

How the values were obtained:
[1] = target: Programmed cell death protein 1/Programmed cell death 1 ligand 1 (Homo sapiens) (UniProt Q15116+Q9NZQ7); test: Inhibition of GST-tagged PD-1 (unknown origin)/His-tagged PD-L1 (unknown origin) interaction at 100 nM by HTRF binding assay relative to control; type: protein-complex assay
[2] = target: Programmed cell death protein 1/Programmed cell death 1 ligand 1 (Homo sapiens, UniProt Q9NZQ7); test: Inhibition of GST-tagged PD-1 (unknown origin)/His-tagged PD-L1 (unknown origin) interaction by HTRF binding assay relative to control; type: protein-complex assay
Programmed cell death protein 1/Programmed cell death 1 ligand 1, sequence (Q15116 whole entry): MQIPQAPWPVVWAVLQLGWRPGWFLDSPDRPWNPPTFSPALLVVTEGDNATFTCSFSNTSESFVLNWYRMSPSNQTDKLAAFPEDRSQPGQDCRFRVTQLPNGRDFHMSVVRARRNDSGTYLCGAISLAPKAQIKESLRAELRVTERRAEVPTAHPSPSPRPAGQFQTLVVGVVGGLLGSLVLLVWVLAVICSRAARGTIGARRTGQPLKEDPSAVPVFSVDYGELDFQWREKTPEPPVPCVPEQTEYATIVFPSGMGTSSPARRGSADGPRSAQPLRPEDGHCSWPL
Programmed cell death protein 1/Programmed cell death 1 ligand 1, sequence (Q9NZQ7 whole entry): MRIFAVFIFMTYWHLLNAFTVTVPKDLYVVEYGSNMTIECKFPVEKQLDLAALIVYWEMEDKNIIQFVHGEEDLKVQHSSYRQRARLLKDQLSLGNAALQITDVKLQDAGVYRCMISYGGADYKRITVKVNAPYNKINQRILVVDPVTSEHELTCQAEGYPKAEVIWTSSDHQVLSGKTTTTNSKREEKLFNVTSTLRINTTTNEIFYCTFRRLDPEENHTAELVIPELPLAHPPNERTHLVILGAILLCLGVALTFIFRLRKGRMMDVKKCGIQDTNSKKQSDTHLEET

Jurkat = test: Cytotoxicity against human Jurkat T cells assessed as reduction in cell viability at 1.1 to 10 uM incubated for 48 hrs by CCK-8 assay; type: toxicity, cell-based; settings: dose 1.1-10 µM
HepG2 [3] = test: Antitumor immunity activity against human HepG2 cells expressing human PD-L1 co-cultured with human Jurkat T cells expressing human PD-1 assessed as reduction in cell viability incubated for 48 hrs by CCK8 assay; type: functional, cell-based; settings: dose 1.1-10 µM
HepG2 [4] = test: Antitumor immunity activity against human HepG2 cells expressing human PD-L1 co-cultured with human Jurkat T cells expressing human PD-1 assessed as reduction in cell viability at 10 uM incubated for 48 hrs by CCK8 assay relative to control; type: functional
[5] = AUC (0 to infinity) in Sprague-Dawley rat at 1 mg/kg, iv administered as single dose and measured after 48 hrs by HPLC-MS/MS analysis; type: ADME, organism-based; set-up: dose 1 mg/kg, time 48 hrs, route iv; settings: in vivo
[6] = MRT (0 to infinity) in Sprague-Dawley rat at 1 mg/kg, iv administered as single dose and measured after 48 hrs by HPLC-MS/MS analysis; type: ADME, organism-based; settings: in vivo
[7] = Half-life in Sprague-Dawley rat at 1 mg/kg, iv administered as single dose and measured after 48 hrs by HPLC-MS/MS analysis; type: ADME, organism-based; settings: in vivo
[8] = Tmax in Sprague-Dawley rat at 1 mg/kg, iv administered as single dose and measured after 48 hrs by HPLC-MS/MS analysis; type: ADME, organism-based; settings: in vivo
[9] = Apparent volume of distribution in Sprague-Dawley rat at 1 mg/kg, iv administered as single dose and measured after 48 hrs by HPLC-MS/MS analysis; type: ADME, organism-based; settings: in vivo, read-out: Vz
[10] = Initial drug concentration in Sprague-Dawley rat at 1 mg/kg, iv administered as single dose and measured after 48 hrs by HPLC-MS/MS analysis; type: ADME, organism-based; settings: in vivo
[11] = AUC (0 to t) in Sprague-Dawley rat at 20 mg/kg, po measured after 48 hrs by HPLC-MS/MS analysis; type: ADME, organism-based; set-up: dose 20 mg/kg, time 48 hrs, route po; settings: in vivo
[12] = AUC (0 to infinity) in Sprague-Dawley rat at 20 mg/kg, po measured after 48 hrs by HPLC-MS/MS analysis; type: ADME, organism-based; set-up: dose 20 mg/kg, time 48 hrs, route po; settings: in vivo
[13] = MRT (0 to t) in Sprague-Dawley rat at 20 mg/kg, po measured after 48 hrs by HPLC-MS/MS analysis; type: ADME, organism-based; settings: in vivo
[14] = Tmax in Sprague-Dawley rat at 20 mg/kg, po measured after 48 hrs by HPLC-MS/MS analysis; type: ADME, organism-based; settings: in vivo
[15] = Cmax in Sprague-Dawley rat at 20 mg/kg, po measured after 48 hrs by HPLC-MS/MS analysis; type: ADME, organism-based; set-up: dose 20 mg/kg, time 48 hrs, route po; settings: in vivo
[16] = AUC (0 to t) in C57BL/6 mouse at 50 mg/kg, ip measured after 4 hrs by HPLC-MS/MS analysis; type: ADME, organism-based; set-up: time 4 hrs, dose 50 mg/kg, route ip; settings: in vivo
[17] = AUC (0 to infinity) in C57BL/6 mouse at 50 mg/kg, ip measured after 4 hrs by HPLC-MS/MS analysis; type: ADME, organism-based; set-up: dose 50 mg/kg, time 4 hrs, route ip; settings: in vivo
[18] = MRT (0 to t) in C57BL/6 mouse at 50 mg/kg, ip measured after 4 hrs by HPLC-MS/MS analysis; type: ADME, organism-based; settings: in vivo
B16-F10 [19] = test: Antitumor activity against mouse B16-F10 cells implanted in BALB/c mouse assessed as reduction in tumor weight at 50 mg/kg, ip administered once daily for 14 days relative to control; type: functional; set-up: scale not given: the % may be the effect or the level left; settings: time 14 day
[20] = Toxicity in […] with mouse B16-F10 cells assessed as effect on body weight at 50 mg/kg, ip administered once daily for 14 days; type: organism-based; settings: in vivo, 336 h, time 14 day
[21] = Drug concentration in heart of C57BL/6 mouse implanted with mouse B16-F10 cells at 50 mg/kg, ip measured after 0.5 hrs by UPLC-MS/MS analysis; type: ADME, organism-based; settings: read-out: Ct
[22] = Drug concentration in liver of C57BL/6 mouse implanted with mouse B16-F10 cells at 50 mg/kg, ip measured after 0.5 hrs by UPLC-MS/MS analysis; type: ADME, organism-based; settings: read-out: Ct
[23] = Drug concentration in lung of C57BL/6 mouse implanted with mouse B16-F10 cells at 50 mg/kg, ip measured after 0.5 hrs by UPLC-MS/MS analysis; type: ADME, organism-based; settings: read-out: Ct
[24] = Drug concentration in tumor of C57BL/6 mouse implanted with mouse B16-F10 cells at 50 mg/kg, ip measured after 0.5 hrs by UPLC-MS/MS analysis; type: ADME, organism-based, Neoplasm; settings: read-out: Ct
[25] = Drug concentration in spleen of C57BL/6 mouse implanted with mouse B16-F10 cells at 50 mg/kg, ip measured after 1 hrs by UPLC-MS/MS analysis; type: ADME, organism-based; settings: read-out: Ct
[26] = Drug concentration in heart of C57BL/6 mouse implanted with mouse B16-F10 cells at 50 mg/kg, ip measured after 2 hrs by UPLC-MS/MS analysis; type: ADME, organism-based; settings: read-out: Ct
[27] = Drug concentration in spleen of C57BL/6 mouse implanted with mouse B16-F10 cells at 50 mg/kg, ip measured after 2 hrs by UPLC-MS/MS analysis; type: ADME, organism-based; settings: read-out: Ct
[28] = Drug concentration in lung of C57BL/6 mouse implanted with mouse B16-F10 cells at 50 mg/kg, ip measured after 2 hrs by UPLC-MS/MS analysis; type: ADME, organism-based; settings: read-out: Ct
[29] = Drug concentration in kidney of C57BL/6 mouse implanted with mouse B16-F10 cells at 50 mg/kg, ip measured after 2 hrs by UPLC-MS/MS analysis; type: ADME, organism-based; settings: read-out: Ct
[30] = Drug concentration in liver of C57BL/6 mouse implanted with mouse B16-F10 cells at 50 mg/kg, ip measured after 4 hrs by UPLC-MS/MS analysis; type: ADME, organism-based; settings: read-out: Ct
[31] = Drug concentration in kidney of C57BL/6 mouse implanted with mouse B16-F10 cells at 50 mg/kg, ip measured after 4 hrs by UPLC-MS/MS analysis; type: ADME, organism-based; settings: read-out: Ct
[32] = Drug concentration in tumor of C57BL/6 mouse implanted with mouse B16-F10 cells at 50 mg/kg, ip measured after 4 hrs by UPLC-MS/MS analysis; type: ADME, organism-based, Neoplasm; settings: read-out: Ct
[33] = Drug concentration in brain of C57BL/6 mouse implanted with mouse B16-F10 cells at 50 mg/kg, ip measured after 4 hrs by UPLC-MS/MS analysis; type: ADME, organism-based; settings: read-out: Ct
B16-F10 [34] = test: Antitumor activity against mouse B16-F10 cells implanted in allogenic BALB/c mouse assessed as increase in CXCR3 mRNA level in tumor at 50 mg/kg, ip by qPCR analysis; type: functional, organism-based
B16-F10 [35] = test: Antitumor activity against mouse B16-F10 cells implanted in allogenic BALB/c mouse assessed as decrease in PD-L1 protein level at 50 mg/kg, ip by flow cytometric analysis; type: functional, organism-based

AUC [5]: 832 ng·h/mL
MRT inf [6]: 19.9 h
half-life [7]: 18.1 h
Tmax [8]: 4.98 min
Vd [9]: 31 L/kg
C0 at 48 h [10]: 257 ng/mL
AUCt [11]: 1160 ng·h/mL
AUC [12]: 1170 ng·h/mL
MRT last at 48 h [13]: 6.9 h
Tmax [14]: 3.3 h
Cmax [15]: 177 ng/mL
AUCt [16]: 4673.237 µg/L/h
AUC [17]: 14501.641 µg/L/h
MRT last at 4 h [18]: 2.24 h
concentration at 0.5 h [21]: 4.7 ng/mL
concentration at 0.5 h [22]: 1970 ng/mL
concentration at 0.5 h [23]: 285 ng/mL
concentration at 0.5 h [24]: 15.5 ng/mL
concentration at 1 h [25]: 3470 ng/mL
concentration at 2 h [26]: 12.4 ng/mL
concentration at 2 h [27]: 7180 ng/mL
concentration at 2 h [28]: 94.9 ng/mL
concentration at 2 h [29]: 208 ng/mL
concentration at 4 h [30]: 3650 ng/mL
concentration at 4 h [31]: 380 ng/mL
concentration at 4 h [32]: 94.2 ng/mL
concentration at 4 h [33]: 4.6 ng/mL
SMILES: Cc1c(COc2cc(OCc3cccc(C#N)c3)c(CN3CCCCC3C(=O)NCCNC(=O)CCCC[C@@H]3SC[C@@H]4NC(=O)N[C@@H]43)cc2Cl)cccc1-c1ccccc1 (stereo partly specified)
inhibition [1]: 104%
pIC50 [2]: 8.74
Activity (Jurkat): Non-Toxic
Activity (HepG2 [3]): Dose-Dependent Effect
Activity (HepG2 [4]): 2.7%
Activity (B16-F10 [19]): 66.1%
Activity [20]: Non-Toxic
Activity (B16-F10 [34]): Active
Activity (B16-F10 [35]): Active
